Values quoted from earlier work, collected in patent US7341836B2, “Modified cyclic nucleotide gated ion channels” (The Regents of the University of Colorado, priority 2001, dated 2008).

What was measured:
PDE I = settings: cited from earlier work
PDE II = biological target: T1, PDE II (Homo sapiens, UniProt O00408); settings: read-out: IC50, PDE II; cited from earlier work
T1 construct: host or cells: heterologously expressed human PDE; human heart

PDE V = PDE V (UniProt O76074); settings: cited from earlier work
PDE VII = biological target: T2, PDE VII (UniProt Q9QXQ1); settings: cited from earlier work
T2 sequence (Q9QXQ1 1-446): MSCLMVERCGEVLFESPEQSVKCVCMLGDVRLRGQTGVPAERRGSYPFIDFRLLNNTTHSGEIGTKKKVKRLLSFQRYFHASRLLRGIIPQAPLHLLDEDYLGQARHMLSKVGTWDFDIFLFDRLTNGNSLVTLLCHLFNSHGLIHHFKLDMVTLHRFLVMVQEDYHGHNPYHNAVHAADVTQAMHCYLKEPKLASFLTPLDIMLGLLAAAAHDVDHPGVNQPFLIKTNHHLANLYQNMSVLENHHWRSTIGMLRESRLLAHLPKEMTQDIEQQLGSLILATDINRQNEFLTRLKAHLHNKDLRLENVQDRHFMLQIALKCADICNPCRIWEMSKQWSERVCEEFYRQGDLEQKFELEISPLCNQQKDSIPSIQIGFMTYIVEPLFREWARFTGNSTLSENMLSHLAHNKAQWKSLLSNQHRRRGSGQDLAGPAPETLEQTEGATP

PDE VIII = biological target: T3, PDE VIII (Mus musculus, UniProt O88502); settings: cited from earlier work
T3 construct: host or cells: heterologously expressed
T3 sequence (O88502 1-823): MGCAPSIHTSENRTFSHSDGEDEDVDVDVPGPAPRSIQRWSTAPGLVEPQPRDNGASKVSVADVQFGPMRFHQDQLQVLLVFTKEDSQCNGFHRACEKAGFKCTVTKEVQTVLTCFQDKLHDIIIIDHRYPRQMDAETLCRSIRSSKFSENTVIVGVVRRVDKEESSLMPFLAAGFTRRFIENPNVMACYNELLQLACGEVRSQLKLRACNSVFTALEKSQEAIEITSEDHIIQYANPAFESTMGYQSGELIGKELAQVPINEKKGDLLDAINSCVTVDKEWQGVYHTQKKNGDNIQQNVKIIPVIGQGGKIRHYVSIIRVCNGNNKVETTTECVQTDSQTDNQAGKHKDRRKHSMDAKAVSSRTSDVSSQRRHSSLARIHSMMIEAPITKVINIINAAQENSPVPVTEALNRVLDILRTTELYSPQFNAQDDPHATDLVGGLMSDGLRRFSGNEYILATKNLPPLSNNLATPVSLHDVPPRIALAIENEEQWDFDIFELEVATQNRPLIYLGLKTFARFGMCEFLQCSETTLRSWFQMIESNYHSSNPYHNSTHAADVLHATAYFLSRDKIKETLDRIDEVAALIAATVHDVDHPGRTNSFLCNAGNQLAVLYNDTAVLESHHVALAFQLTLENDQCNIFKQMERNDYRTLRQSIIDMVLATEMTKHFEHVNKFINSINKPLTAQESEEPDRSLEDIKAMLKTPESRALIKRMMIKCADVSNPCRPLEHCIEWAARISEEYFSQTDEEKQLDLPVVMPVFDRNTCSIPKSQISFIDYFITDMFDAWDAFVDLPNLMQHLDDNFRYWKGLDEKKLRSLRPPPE

PDE IX = biological target: T4, PDE IX (UniProt O70628); settings: read-out: IC50, PDE IX; cited from earlier work
T4 sequence (O70628 1-534): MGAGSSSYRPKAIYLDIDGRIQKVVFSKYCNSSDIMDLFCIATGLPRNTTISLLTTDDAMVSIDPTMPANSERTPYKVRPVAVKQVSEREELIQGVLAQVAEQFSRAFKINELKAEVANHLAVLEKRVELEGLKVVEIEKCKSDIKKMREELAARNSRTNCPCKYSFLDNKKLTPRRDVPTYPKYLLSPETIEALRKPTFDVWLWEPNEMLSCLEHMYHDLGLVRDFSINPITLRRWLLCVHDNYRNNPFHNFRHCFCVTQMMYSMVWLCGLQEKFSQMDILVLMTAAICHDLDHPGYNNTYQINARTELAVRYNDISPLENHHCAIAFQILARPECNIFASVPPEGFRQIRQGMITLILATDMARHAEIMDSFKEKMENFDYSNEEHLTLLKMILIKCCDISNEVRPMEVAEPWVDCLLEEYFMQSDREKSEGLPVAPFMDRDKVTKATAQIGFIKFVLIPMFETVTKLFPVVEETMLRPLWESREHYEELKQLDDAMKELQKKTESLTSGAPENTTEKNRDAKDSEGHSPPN

PDE X = biological target: T5, PDE X (Mus musculus, UniProt Q8CA95); settings: cited from earlier work
T5 construct: host or cells: heterologously expressed
T5 sequence (Q8CA95 1-790): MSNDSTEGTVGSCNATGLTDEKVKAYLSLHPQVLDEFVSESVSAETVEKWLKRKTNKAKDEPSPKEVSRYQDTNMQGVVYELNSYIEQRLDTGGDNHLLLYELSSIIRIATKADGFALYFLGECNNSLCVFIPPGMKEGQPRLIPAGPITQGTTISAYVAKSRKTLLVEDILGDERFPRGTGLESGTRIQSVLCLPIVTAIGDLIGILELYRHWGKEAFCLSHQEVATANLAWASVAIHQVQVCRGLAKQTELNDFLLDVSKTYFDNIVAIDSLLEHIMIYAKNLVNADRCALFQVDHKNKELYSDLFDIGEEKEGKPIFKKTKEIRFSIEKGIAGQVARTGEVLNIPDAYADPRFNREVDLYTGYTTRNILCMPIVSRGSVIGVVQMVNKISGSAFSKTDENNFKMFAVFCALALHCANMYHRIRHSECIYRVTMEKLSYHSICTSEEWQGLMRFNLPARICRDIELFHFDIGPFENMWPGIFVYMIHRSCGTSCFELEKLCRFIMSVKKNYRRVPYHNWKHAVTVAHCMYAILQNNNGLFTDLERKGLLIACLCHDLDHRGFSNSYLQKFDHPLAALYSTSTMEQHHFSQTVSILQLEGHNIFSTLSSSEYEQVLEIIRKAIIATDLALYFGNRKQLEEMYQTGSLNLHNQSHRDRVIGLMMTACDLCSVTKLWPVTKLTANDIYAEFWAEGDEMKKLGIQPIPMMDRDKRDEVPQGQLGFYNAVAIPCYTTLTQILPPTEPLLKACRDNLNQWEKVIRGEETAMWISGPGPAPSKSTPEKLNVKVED

T1 sequence (O00408 whole entry): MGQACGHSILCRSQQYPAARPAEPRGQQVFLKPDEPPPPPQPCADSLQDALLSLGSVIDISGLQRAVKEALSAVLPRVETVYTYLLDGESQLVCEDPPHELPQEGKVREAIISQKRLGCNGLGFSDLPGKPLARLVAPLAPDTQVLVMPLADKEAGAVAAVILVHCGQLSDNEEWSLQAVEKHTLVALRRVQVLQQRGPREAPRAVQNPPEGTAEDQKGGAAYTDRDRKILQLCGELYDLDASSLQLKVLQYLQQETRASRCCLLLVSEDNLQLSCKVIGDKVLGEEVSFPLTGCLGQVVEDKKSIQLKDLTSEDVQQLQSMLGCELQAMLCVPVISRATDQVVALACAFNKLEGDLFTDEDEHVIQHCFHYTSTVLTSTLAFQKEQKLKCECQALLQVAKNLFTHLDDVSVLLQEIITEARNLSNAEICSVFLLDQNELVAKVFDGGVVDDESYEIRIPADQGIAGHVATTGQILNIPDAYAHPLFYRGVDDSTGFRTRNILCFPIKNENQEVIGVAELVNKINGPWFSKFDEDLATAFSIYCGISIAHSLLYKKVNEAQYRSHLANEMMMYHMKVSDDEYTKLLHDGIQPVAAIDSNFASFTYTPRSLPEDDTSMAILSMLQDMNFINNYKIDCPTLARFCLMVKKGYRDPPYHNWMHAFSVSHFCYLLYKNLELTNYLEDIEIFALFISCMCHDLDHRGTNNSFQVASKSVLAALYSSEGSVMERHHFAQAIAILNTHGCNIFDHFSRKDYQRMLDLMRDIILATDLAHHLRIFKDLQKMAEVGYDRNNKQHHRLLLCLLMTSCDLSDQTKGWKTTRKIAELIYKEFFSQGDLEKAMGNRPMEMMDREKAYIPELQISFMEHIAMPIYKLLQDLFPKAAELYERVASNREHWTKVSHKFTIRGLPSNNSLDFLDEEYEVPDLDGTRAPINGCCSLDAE

Q: For CCCCOc1cc(CC2CNC(=O)N2)ccc1OC (stereo not drawn) [RO-20-1724, 4-(3-butoxy-4-methoxybenzyl)-2-imidazolidinone], which IC50 (PDE I) is on record?
A: 200 µM

Q: What about the IC50 (PDE II) of the same compound?
A: > 100 µM

Q: And the IC50 (PDE V)?
A: 250 µM

Q: And the IC50 (PDE VII)?
A: > 200 µM

Q: What about the IC50 (PDE VIII) of the same compound?
A: > 200 µM

Q: Which results are given for COc1ccc(C2CNC(=O)C2)cc1OC1CCCC1 (stereo not drawn) [Rolipram]?
A: IC50 (PDE I): > 150 µM; IC50 (PDE II): > 100 µM; IC50 (PDE VII): > 100 µM; IC50 (PDE VIII): > 200 µM; IC50 (PDE IX): > 200 µM; IC50 (PDE X): 47 µM

Q: Which IC50 (PDE I) does the source give for CC(C)Cn1c(=O)n(C)c(=O)c2[nH]cnc21 [IBMX, 3-isobutyl-1-methylxanthine] here?
A: 2 to 3 µM

Q: And the IC50 (PDE II)?
A: 20 to 50 µM

Q: What about the IC50 (PDE V) of the same compound?
A: 4 to 7 µM

Q: What about the IC50 (PDE VII) of the same compound?
A: 2 to 8 µM

Q: And the IC50 (PDE VIII)?
A: > 200 µM

Q: What about the IC50 (PDE IX) of the same compound?
A: > 200 µM

Q: And the IC50 (PDE X)?
A: 2.6 µM

Q: For CCCCCC[C@@H]([C@@H](C)O)n1cnc2c(N)ncnc21 (racemic) [EHNA], which IC50 (PDE II) is on record?
A: 0.5 to 1 µM

Q: What about the IC50 (PDE V) of the same compound?
A: > 500 µM

Q: And the IC50 (PDE VII)?
A: > 100 µM

Q: And the IC50 (PDE VIII)?
A: > 100 µM

Q: And the IC50 (PDE IX)?
A: > 100 µM

Q: And the IC50 (PDE X)?
A: 69 µM
